# Measurements: article PMC9596378, “Discovery and molecular basis of subtype-selective cyclophilin inhibitors” (Nature Chemical Biology, 2022)
# Target: T1, His6-CypD (Homo sapiens, UniProt P30405)
# T1 construct: PPIF (UniProtKB Entry P30405: residues 45–207); made in house; host or cells: E. coli BL21(DE3)
# Assay: Surface plasmon resonance analysis of CypD ligands
# Type: binding
# Settings: immobilized CypD; read-out: KD CypD (SPR)
# Protocol: Adapting a previously used protocol, employing a Biacore T200 SPR, a Sensor S NTA (Biacore) chip was pre-loaded with 0.3 M NiCl2 and His6-CypD (50.24 nM, 1 µg mL^−1) within a solution of 10 mM HEPES, 150 mM NaCl, 0.005% Tween-20 and 1 mM TCEP (surface plasmon resonance (SPR) buffer). Protein was covalently immobilized subsequently with injection of 200 mM 1-ethyl-3-(3-dimethylaminopropyl)carbodiimide (EDC) 50 mM N-hydroxysuccinimide (NHS). EDC–NHS-activated chip was quenched by flowing 1 M ethanolamine over the chip. Compounds were dissolved in 1% DMSO/SPR buffer and flowed over the SPR chip. Binding analysis was conducted from raw sensorgram resonance unit (RU) values, where individual replicates represent kinetic fitted RU value during time of compound administration at each dose. RU values were normalized to DMSO treatment and the maximum RU value of 200 µM JOMBt. These values were evaluated using Prism v.9 by fitting one site-specific binding to calculate KD values.
# T1 sequence (P30405 45-207): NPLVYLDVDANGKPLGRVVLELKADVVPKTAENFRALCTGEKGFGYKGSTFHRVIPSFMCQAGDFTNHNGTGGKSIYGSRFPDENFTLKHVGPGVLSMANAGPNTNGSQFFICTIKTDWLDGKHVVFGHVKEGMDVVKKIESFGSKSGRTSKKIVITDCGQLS
smiles,measurement,value
NCCOCCNC(=O)C1CCNC(=O)C=CC(=O)N2CCCC(C2)C(=O)NC(Cc2ccco2)C(=O)NCc2ccccc2CC(=O)N1 (stereo not shown) [JOMBt],Kd,19 µM
